We go through one molecule from US9446039B2, “Aminoheteroaryl compounds as MTH1 inhibitors” (CEMM—FORSCHUNGSZENTRUM FÜR MOLEKULARE MEDIZIN GMBH, priority 2012, dated 2016).

Common to all, as to format: binding
For assay [1], the target named is T1, SW480 colon carcinoma cells lysate proteins (Homo sapiens, UniProt Q99497).
T1 sequence (Q99497 1-189): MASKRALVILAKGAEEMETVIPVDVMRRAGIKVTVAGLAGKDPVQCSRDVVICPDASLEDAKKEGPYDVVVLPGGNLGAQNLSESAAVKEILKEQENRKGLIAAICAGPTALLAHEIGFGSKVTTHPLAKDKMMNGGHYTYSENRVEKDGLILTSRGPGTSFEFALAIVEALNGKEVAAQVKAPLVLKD
The note with it: PreyGene PARK7.

Assay [2] has as its target SW480 colon carcinoma cells lysate proteins (Homo sapiens, UniProt P18669). The settings on record: PreyGene PGAM1.
Assay [3] concerns the target T2, SW480 colon carcinoma cells lysate proteins (Homo sapiens, UniProt Q92973).
T2 sequence (Q92973 1-898): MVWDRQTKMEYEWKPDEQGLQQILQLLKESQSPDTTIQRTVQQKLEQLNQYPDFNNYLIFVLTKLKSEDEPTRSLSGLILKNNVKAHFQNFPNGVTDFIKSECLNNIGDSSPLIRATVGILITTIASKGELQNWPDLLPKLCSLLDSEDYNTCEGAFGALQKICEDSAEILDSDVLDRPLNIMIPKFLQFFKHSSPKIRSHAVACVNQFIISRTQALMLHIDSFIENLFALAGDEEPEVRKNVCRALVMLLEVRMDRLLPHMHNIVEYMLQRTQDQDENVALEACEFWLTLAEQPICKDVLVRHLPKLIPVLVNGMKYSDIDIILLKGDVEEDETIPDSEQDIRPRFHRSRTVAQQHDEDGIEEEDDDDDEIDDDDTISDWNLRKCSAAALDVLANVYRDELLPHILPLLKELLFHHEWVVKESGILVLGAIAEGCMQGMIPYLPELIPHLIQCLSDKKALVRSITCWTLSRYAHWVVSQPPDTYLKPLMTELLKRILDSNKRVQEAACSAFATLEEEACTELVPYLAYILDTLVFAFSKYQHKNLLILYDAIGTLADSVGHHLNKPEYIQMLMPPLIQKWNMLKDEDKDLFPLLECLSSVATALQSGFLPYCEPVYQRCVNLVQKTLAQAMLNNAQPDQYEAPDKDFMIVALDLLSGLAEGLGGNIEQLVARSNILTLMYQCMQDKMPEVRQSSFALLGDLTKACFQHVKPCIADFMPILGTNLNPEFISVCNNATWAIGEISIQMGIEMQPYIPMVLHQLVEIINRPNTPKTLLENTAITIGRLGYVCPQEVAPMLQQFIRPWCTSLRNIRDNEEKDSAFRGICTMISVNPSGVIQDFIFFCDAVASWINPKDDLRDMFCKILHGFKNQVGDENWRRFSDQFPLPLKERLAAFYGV
The note with it: PreyGene TNPO1; SW480 cells.

SW480 colon carcinoma cells lysate proteins (Homo sapiens, UniProt P18669), sequence (P18669 whole entry): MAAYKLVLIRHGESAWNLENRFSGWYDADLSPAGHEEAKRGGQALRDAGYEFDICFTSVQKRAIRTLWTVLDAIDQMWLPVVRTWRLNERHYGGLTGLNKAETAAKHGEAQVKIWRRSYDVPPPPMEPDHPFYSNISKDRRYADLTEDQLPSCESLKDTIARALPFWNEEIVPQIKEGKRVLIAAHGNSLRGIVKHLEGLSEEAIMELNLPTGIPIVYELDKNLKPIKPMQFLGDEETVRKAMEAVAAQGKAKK

For the molecule `C[C@H](Oc1cc(-c2cnn(C3CCNCC3)c2)cnc1N)c1c(Cl)ccc(F)c1Cl` [(5)-crizotinib], in assay [1], the AvgP stood at 0.4547, the “SC.Exp. 1-1” value turned out to be 6, the “SC.Exp. 1-2” value is 7 and the “SC.Exp. 2-1” value was determined as 0. Besides, in assay [1], the “SC.Exp. 2-2” value worked out at 0 and the “Sum (SC.Exp.)” value was determined as 13. Besides, in assay [2], the AvgP is 0.4721, the “SC.Exp. 1-1” value is given as 6, the “SC.Exp. 1-2” value came to 6 and the “SC.Exp. 2-1” value is given as 0. Moreover, in assay [2], the “SC.Exp. 2-2” value is recorded as 0 and the “Sum (SC.Exp.)” value is 12. Moreover, in assay [3], the AvgP is 0, the “SC.Exp. 1-1” value was found to be 9, the “SC.Exp. 1-2” value came out at 7 and the “SC.Exp. 2-1” value was 6. In assay [3], the “SC.Exp. 2-2” value is listed as 6 and the “SC.Exp. Sum” value turned out to be 28.
